Earlier results, collected in US20060287529A1, “Solid phase synthesis of antitumoral compounds” (priority 2003, published 2006).

Key:
A549 cell line = A549 cell line in culture; background statement
P388 cell line = P388 cell line in culture; background statement
fertilised sea urchin = fertilised sea urchin assay; background statement
lung cancer cell lines = settings: acting as a Type IV microtubule poison; background statement

Compound	cytotoxicity (A549 cell line)	cytotoxicity (P388 cell line)	inhibition of cell division (fertilised sea urchin)	activity in lung cancer cell lines (lung cancer cell lines)
COc1ccc(-c2c3n(c4c(=O)oc5cc(O)c(OC)cc5c24)CCc2cc(O)c(OC)cc2-3)cc1O [lamellarin L, 8,9-dihydro-3,11-dihydroxy-2,12-dimethoxy-14-(3′-hydroxy-4′-methoxy-phenyl)-6H-[1]benzopyrano[4′,3′:4,5]pyrrolo[2,1-α]isoquinolin-6-one]	comparable cytoxicity	comparable cytoxicity		
COc1cc(-c2c3n(c4c(=O)oc5cc(O)c(OC)cc5c24)CCc2c-3cc(OC)c(OC)c2OC)ccc1O [lamellarin C]			inhibition of cell division	
lamellarin D			inhibition of cell division	
lamellarin K	comparable cytoxicity	comparable cytoxicity		
COc1ccc(-c2c3c4cc(OC)c(O)cc4oc(=O)c3n3ccc4cc(O)c(OC)cc4c23)cc1O [lamellarin N, 3,10-dihydroxy-2,12-dimethoxy-14-(3′-hydroxy-4′-methoxy-phenyl)-6H-[1]benzopyrano[4′,3′:4,5]pyrrolo[2,1-α]isoquinolin-6-one]				exhibit activity
lamellarin I	comparable cytoxicity	comparable cytoxicity		
